Active and inactive are the calls of the source. No cut-off for these calls is given here.
Experiments:
Homo sapiens = species: Homo sapiens; experiment: Selectivity ratio of IC50 for human HDAC3 to IC50 for human HDAC6
Histone deacetylase 4 = Histone deacetylase 4 (Homo sapiens, UniProt P56524); experiment: Inhibition of human HDAC4 using Boc-Lys(trifluoroacetyl)-AMC as flurogenic substrate
PC-3 [1] = experiment: Induction of H3K4ME2 accumulation in human PC-3 cells at 0.5 to 10 uM incubated for 48 hrs by Western blot analysis; assay type: functional, cell-based; settings: dose 0.5-10 µM
[2] = Metabolic stability in Beagle dog hepatocyte assessed as parent compound remaining at 10 uM incubated for 240 mins by LC-MS/MS analysis; assay type: ADME, cell-based, Canis lupus familiaris; settings: hepatocytes, read-out: Stability
PC-3 [3] = experiment: Induction of cell death in LSD1 knockdown human PC-3 cells assessed as activation of procaspase-3 at 1.25 to 10 uM by Western blot analysis; assay type: functional, cell-based; settings: dose 1.25-10 µM
Histone deacetylase 2 = Histone deacetylase 2 (Homo sapiens, UniProt Q92769); experiment: Inhibition of human HDAC2 (379 to 382 residues) using RHKKAc as flurogenic substrate
Histone deacetylase 2, sequence (Q92769 whole entry, the tested form may be a part): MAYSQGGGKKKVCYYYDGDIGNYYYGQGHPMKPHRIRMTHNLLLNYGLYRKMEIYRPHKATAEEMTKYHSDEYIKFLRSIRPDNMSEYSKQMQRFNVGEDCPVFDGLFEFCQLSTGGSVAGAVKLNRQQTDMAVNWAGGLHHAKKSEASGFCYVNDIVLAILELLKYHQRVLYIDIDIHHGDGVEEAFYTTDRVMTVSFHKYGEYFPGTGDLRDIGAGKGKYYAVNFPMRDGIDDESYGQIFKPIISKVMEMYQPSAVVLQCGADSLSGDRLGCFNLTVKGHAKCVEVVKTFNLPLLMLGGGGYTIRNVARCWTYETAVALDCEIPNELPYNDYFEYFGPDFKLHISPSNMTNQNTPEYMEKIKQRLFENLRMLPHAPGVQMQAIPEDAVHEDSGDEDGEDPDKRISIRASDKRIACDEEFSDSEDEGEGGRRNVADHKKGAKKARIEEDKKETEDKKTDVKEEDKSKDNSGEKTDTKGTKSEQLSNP

[4] = Cmax in Sprague-Dawley rat at 25 mg/kg, po formulated using SMEDDS administered once via gavage measured upto 24 hrs post dose by UPLC-MS/MS analysis; assay type: ADME, organism-based; set-up: dose 25 mg/kg, time < 24 hrs, route po; settings: in vivo
PC-3 [5] = experiment: Downregulation of LSD1 in human PC-3 cells at 1.25 to 10 uM incubated for 48 hrs by Western blot analysis; assay type: functional, cell-based; settings: dose 1.25-10 µM
[6] = Metabolic stability in Sprague-Dawley rat hepatocyte assessed as parent compound remaining at 10 uM incubated for 240 mins by LC-MS/MS analysis; assay type: ADME, cell-based; settings: hepatocytes, read-out: Stability
[7] = AUC (0 to infinity) in Sprague-Dawley rat at 25 mg/kg, po formulated using SMEDDS administered once via gavage measured upto 24 hrs post dose by UPLC-MS/MS analysis; assay type: ADME, organism-based; set-up: dose 25 mg/kg, time < 24 hrs, route po; settings: in vivo
PC-3 [8] = experiment: Upregulation of acetyl-tubulin in human PC-3 cells at 0.625 to 5 uM by Western blot analysis; assay type: functional, cell-based; settings: dose 0.625-5 µM
[9] = Clearance in Sprague-Dawley rat at 2 mg/kg, iv administered as single dose through tail vein measured upto 24 hrs post dose by UPLC-MS/MS analysis; assay type: ADME, organism-based; settings: in vivo
[10] = Metabolic stability in human hepatocyte assessed as parent compound remaining at 10 uM incubated for 120 mins by LC-MS/MS analysis; assay type: ADME, cell-based; settings: hepatocytes, read-out: Stability
[11] = Half life in Sprague-Dawley rat at 25 mg/kg, po formulated using SMEDDS administered once via gavage measured upto 24 hrs post dose by UPLC-MS/MS analysis; assay type: ADME, organism-based; settings: in vivo
[12] = biological target: T1, Amine oxidase [flavin-containing] A (Homo sapiens, UniProt P21397); experiment: Inhibition of human full length recombinant MAO-A expressed in insect cells using kynuramine as substrate
T1 sequence (P21397 whole entry): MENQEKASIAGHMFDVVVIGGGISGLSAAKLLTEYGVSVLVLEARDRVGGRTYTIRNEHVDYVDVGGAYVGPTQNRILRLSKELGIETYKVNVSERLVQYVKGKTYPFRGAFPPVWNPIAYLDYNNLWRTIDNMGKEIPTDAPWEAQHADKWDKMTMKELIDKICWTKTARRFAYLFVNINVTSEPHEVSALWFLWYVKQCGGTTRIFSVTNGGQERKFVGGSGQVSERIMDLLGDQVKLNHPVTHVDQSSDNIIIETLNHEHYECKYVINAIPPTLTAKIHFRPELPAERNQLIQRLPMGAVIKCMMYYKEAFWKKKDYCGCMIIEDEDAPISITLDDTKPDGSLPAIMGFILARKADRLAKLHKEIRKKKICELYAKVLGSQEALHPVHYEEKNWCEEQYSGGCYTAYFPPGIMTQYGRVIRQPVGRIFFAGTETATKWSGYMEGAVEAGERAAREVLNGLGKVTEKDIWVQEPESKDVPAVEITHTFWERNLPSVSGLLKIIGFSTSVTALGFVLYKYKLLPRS

Histone deacetylase 7 = biological target: T2, Histone deacetylase 7 (Homo sapiens, UniProt Q8WUI4); experiment: Inhibition of human HDAC7 using Boc-Lys(trifluoroacetyl)-AMC as flurogenic substrate
T2 sequence (Q8WUI4 whole entry): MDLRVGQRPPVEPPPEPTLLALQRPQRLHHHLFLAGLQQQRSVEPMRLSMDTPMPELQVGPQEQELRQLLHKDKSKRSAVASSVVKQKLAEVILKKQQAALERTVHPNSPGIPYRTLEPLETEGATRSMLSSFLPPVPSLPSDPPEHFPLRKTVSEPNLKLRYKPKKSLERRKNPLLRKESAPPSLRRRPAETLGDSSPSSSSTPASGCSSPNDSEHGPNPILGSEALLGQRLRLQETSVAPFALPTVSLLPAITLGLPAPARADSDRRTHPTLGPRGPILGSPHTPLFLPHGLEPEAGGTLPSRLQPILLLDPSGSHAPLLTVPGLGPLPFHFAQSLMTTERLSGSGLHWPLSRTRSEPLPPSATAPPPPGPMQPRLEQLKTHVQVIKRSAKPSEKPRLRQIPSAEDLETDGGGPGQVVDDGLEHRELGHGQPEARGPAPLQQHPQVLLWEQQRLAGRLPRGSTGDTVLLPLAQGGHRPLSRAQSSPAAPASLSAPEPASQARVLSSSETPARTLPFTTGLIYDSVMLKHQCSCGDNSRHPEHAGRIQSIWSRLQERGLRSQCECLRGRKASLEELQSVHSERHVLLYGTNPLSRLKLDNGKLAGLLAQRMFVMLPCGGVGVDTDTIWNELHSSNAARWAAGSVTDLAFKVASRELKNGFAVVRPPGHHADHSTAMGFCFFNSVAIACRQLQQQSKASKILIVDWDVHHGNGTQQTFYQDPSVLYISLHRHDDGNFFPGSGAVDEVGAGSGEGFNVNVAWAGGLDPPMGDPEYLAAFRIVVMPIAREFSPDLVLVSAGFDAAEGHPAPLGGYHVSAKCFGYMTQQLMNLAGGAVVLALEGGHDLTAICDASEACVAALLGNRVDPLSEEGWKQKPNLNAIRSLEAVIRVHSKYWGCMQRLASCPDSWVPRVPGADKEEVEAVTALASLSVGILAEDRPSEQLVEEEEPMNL

DU-145 [13] = experiment: Upregulation of acetyl-tubulin in human DU-145 cells at 0.625 to 5 uM by Western blot analysis; assay type: functional, cell-based; settings: dose 0.625-5 µM
[14] = Half life in Sprague-Dawley rat at 2 mg/kg, iv administered as single dose through tail vein measured upto 24 hrs post dose by UPLC-MS/MS analysis; assay type: ADME, organism-based; settings: in vivo
PC-3 [15] = experiment: Antiproliferative activity against human PC-3 cells assessed as cell growth inhibition incubated for 48 hrs by MTT assay; assay type: functional
[16] = Metabolic stability in human hepatocyte assessed as half life at 10 uM by LC-MS/MS analysis; assay type: ADME, cell-based; settings: hepatocytes
DU-145 [17] = experiment: Upregulation of acetyl-histone H3 in human DU-145 cells at 0.625 to 5 uM by Western blot analysis; assay type: functional, cell-based; settings: dose 0.625-5 µM
[18] = Metabolic stability in Sprague-Dawley rat hepatocyte assessed as parent compound remaining at 10 uM incubated for 120 mins by LC-MS/MS analysis; assay type: ADME, cell-based; settings: hepatocytes, read-out: Stability
Histone deacetylase 9 = Histone deacetylase 9 (Homo sapiens, UniProt Q9UKV0); experiment: Inhibition of human HDAC9 using Boc-Lys(trifluoroacetyl)-AMC as flurogenic substrate
Histone deacetylase 9, sequence (Q9UKV0 whole entry): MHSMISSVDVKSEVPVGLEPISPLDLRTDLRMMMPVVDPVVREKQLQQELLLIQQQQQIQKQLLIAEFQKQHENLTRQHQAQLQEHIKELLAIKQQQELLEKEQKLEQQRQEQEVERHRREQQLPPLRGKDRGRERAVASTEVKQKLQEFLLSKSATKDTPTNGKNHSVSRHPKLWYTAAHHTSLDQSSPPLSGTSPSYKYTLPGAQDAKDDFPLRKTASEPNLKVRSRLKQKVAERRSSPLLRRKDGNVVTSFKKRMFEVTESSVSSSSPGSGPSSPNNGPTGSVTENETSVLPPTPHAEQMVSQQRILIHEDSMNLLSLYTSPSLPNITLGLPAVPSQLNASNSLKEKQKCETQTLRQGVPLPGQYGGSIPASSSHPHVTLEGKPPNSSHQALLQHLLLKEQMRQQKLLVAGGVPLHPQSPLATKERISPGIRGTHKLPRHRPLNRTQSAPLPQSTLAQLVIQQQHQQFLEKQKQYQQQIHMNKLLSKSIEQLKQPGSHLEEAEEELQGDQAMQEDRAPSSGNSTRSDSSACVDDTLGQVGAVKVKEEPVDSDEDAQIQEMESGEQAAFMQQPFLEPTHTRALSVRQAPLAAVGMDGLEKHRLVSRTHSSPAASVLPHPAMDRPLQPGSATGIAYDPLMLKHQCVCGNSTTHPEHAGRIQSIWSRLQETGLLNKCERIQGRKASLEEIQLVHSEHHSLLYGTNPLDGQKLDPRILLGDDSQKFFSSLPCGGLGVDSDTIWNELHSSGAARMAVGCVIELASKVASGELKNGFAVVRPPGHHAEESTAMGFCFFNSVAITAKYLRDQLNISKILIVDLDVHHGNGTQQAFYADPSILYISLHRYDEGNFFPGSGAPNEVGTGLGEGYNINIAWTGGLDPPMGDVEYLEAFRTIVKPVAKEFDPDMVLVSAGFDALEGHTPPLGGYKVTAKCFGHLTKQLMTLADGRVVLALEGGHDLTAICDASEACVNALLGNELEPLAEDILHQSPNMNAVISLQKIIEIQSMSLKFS

Histone deacetylase 4, sequence (P56524 whole entry): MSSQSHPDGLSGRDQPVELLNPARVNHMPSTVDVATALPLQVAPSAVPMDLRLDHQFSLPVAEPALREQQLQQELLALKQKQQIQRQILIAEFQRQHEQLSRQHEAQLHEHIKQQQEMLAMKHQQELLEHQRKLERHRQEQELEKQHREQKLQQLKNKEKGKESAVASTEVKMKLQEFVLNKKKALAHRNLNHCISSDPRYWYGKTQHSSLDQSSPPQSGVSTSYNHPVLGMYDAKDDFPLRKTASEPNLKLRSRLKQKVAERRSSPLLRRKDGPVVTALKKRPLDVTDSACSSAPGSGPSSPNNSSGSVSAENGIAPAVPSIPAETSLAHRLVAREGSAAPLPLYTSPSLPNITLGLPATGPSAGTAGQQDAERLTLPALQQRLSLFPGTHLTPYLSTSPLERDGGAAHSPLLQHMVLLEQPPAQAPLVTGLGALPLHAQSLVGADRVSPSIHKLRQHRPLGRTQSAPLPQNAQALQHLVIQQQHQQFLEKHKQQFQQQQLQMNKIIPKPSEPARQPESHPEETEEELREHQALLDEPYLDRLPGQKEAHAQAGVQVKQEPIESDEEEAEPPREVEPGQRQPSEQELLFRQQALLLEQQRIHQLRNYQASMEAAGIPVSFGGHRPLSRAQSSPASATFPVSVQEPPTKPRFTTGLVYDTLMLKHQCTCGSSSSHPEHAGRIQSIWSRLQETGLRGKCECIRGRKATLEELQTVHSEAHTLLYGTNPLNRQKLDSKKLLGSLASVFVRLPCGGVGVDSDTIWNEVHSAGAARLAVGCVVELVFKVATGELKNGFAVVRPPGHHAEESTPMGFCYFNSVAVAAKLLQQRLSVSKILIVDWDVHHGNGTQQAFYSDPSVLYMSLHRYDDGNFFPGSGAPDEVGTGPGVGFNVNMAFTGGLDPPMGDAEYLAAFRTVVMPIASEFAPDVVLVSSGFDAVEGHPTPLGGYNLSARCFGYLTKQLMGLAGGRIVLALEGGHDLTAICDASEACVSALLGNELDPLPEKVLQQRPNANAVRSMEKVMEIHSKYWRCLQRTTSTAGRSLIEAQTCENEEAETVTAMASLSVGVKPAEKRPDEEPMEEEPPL

In the case of `C#CCN(C)Cc1cccc(NC(=O)CCCCCCC(=O)NO)c1`, the Ratio IC50 (Homo sapiens) is reported as 5.8, the IC50 (Histone deacetylase 4) is reported as greater than 10 µM and the Activity (PC-3 [1]) is reported as “Active”. For the same compound, the remaining at 4 h, 10 µM [2] was 46.6%, the Activity (PC-3 [3]) was “Active” and the IC50 (Histone deacetylase 2) was 1.54 µM. The Cmax [4] was 257 ng/mL, the Activity (PC-3 [5]) was “Active” and the remaining at 4 h, 10 µM [6] was 15.9%. For the same compound, the AUC(0-inf) [7] was 596 ng·h/mL, the Activity (PC-3 [8]) was “Active” and the clearance [9] was 500 mL/min/kg. The remaining at 2 h, 10 µM [10] was 95.5%, the half-life [11] was 4.3 h and the IC50 [12] was 0.79 µM. For the same compound, the IC50 (Histone deacetylase 7) was greater than 10 µM, the Activity (DU-145 [13]) was “Active” and the half-life [14] was 8.1 h. For the same compound, the GI50 (PC-3 [15]) was 0.33 µM, the half-life at 10 µM [16] was 13.3 h and the Activity (DU-145 [17]) was “Active”. The remaining at 2 h, 10 µM [18] was 35.9% and the IC50 (Histone deacetylase 9) was greater than 10 µM.

Reference: ChEMBL document CHEMBL5096208, “Installation of Pargyline, a LSD1 Inhibitor, in the HDAC Inhibitory Template Culminated in the Identification of a Tractable Antiprostate Cancer Agent” (J Med Chem, 2021)
